Test results: patent US12085575B2, “Compositions and methods for detecting proteinopathies” (BOARD OF SUPERVISORS OF LOUISIANA STATE UNIVERSITY AND …, priority 2011, dated 2024)
Residues, ends and D or L forms follow the SMILES beside them. *: point of attachment. Cbz = O=C(OCc1ccccc1)*

Legend:
[1] = test system: HA-polyubiquitylated proteins; assay: UV-induced degradation of HA-polyubiquitylated proteins (anti-HA Western blot); type: cell-based, human; details: for UV-induced degradation of HA-Lys48-linked polyubiquitylated proteins: HA-Lys48 only ubiquitin construct; for UV-induced decrease of HA-polyubiquitylated proteins: MG132 1 μM or Bafl 1 nM 18 h, 3 h recovery; for UV-induced decrease of HA-polyubiquitylated proteins / UV-induced degradation of HA-polyubiquitylated proteins: UV 25 mJ/m2; for UV-induced degradation of HA-polyubiquitylated proteins: MG132 1 nm or 3-MA 10 nm for 18 h
Procedure: Immunoblotting Analysis of HA-ubiquitin conjugated proteins in cells exposed to UV radiation. Cells ([…]) were transfected with a hemagglutinin (HA)-ubiquitin plasmid using the PolyFect transfection reagent (Qiagen; Valencia, CA) as described (24). Twenty-four h after transfection, cells were treated with either proteasome inhibitor MG132 (1 μM) (Boston Biochemicals; Cambridge, MA) or autophagy inhibitor Bafilomycin A1 (Bafl) (1 nM) (Sigma-Aldrich) or 3-Methyladenine (3-MA) (100 nM) for 18 h. Cells were exposed to UV radiation (25 mJoules, using BioRad GS Gene Linker™ UV Chamber) and/or left untreated. Cells were then allowed to recover in the presence of inhibitors for 3 hr. Cell lysis, SDS-PAGE, and immunoblotting analysis to detect HA-ubiquitin conjugated proteins using anti-HA antibodies was carried out as described herein.
Decrease in the steady state levels of polyubiquitylated proteins could be due to their increased deubiquitylation or increased degradation via the 26S proteasome. Also, the ubiquitin antibody used in the experiment herein is known to cross-react with free ISG15/UCRP (44), and ISG15 protein is elevated in A-T cells (20). An HA-ubiquitin construct was transfected and then the steady state levels of the HA-polyubiquitylated proteins was assessed (to rule out the possibility of protein polyubiquitylation versus protein polyISGlyation), in the absence or presence of the proteasome inhibitor MG132 (to rule out the possibility of protein deubiquitylation versus protein degradation), in UV treated A-T and ATM+ cells. In FIG. 8B, A-T and ATM+ cells were transfected with a HA-ubiquitin construct. Cells were then treated with MG132 (1 μM) or Bafl (1 nM) for 18 hours and exposed to UV radiation (25 mJ/m2). After recovery in the presence of inhibitors for an additional three hours, cells were lysed. Cell extracts were analyzed by Western blotting for HA-polyubiquitylated proteins and actin using anti-HA and anti-actin antibodies respectively. Intensity of the total HA-polyubiquitylated proteins was quantitated using BioRad Quantity One software and results shown in FIG. 8C.
To complement the results shown in FIG. 8B, another construct was used that expresses HA-ubiquitin and that can preferentially make polyubiquitin chains linked through Lys48 on the substrates (20). In FIG. 8D, A-T and ATM+ cells were transfected with HA-Lys48 only ubiquitin construct. The inhibitor and UV treatments, cell lysis, SDS-PAGE, and immunoblotting analysis to detect HA-ubiquitin conjugated proteins using anti-HA antibodies was carried out as described herein. The experiment was repeated two times with the reproducible results. Similar results were obtained using this distinct HA-ubiquitin construct (FIG. 8D) as obtained herein (FIG. 8B); UV induced MG132- and Bafilomycin-resistant degradation of HA-Lys48-linked polyubiquitylated proteins in A-T cells, but not in ATM+ cells.
For FIG. 14A, HA-ubiquitin-transfected A-T/LV-control shRNA cells were exposed to UV (25 mJ/m2). After three hours of recovery, assessment of HA-polyubiquitylated proteins was carried out as described herein for FIG. 8B. In FIG. 14B, HA-ubiquitin-transfected A-T/LV-control shRNA cells were treated with Bafl (1 nm for 18 h). Cells were then exposed to UV (25 mJ/m2). After three hours of recovery in the presence of the inhibitor, assessment of HA-polyubiquitylated proteins was carried out as described for FIG. 14A. For FIG. 14C, HA-ubiquitin-transfected A-T/LV-control shRNA cells were treated with MG132 (1 nm for 18 h). Cells were then exposed to UV (25 mJ/m2). After three hours of recovery in the presence of the inhibitor, assessment of HA-polyubiquitylated proteins was carried out as described for FIG. 14A. For FIG. 14D, HA-ubiquitin-transfected A-T/LV-control shRNA cells were treated with 3-MA (10 nm for 18 h). Cells were then exposed to UV (25 mJ/m2). […]

[2] = test system: polyubiquitylated proteins; assay: Camptothecin-induced degradation of polyubiquitylated proteins in A-T cells; type: cell-based, human; details: CPT 10 μm with Bafl 1 nm, 24 hr
Procedure: To test the generality of this observation, the anticancer drug camptothecin (CPT), a genotoxic agent (37, 48-50), which is known to sensitize A-T cells (37), like UV, was used to induce degradation of polyubiquitylated proteins in A-T cells. In FIG. 8E, A-T cells were treated with camptothecin (CPT; 10 μm) in the presence or absence of Bafl (1 nm) for 24 hr. Ubiquitin conjugated proteins using anti-ubiquitin antibodies were detected as described herein for FIG. 8A. The experiment was repeated three times.

LC3 = assay: UV-induced LC3 degradation in organotypic cerebellar brain slices; type: cell-based, mice
Procedure: In FIG. 19B, LC3 degradation in UV-treated A-T brain slices is shown. The same tissue lysates prepared from A-T and ATM+/− brains used in FIG. 17A were analyzed for LC3 and actin proteins. Intensity of the total LC3 and corresponding actin bands was quantitated using BioRad Quantity One software. The percent changes in LC3 amounts were calculated as a ratio between band intensities of LC3 (I and II) and actin (bar chart). In FIGS. 19A and 19B, the bar graphs have the following legends: bars 1: No drug and +Bafl controls; bars 2: +UV; and bars 3: +Bafl+UV.

SMILES	UV-induced degradation of HA-Lys48-linked polyubiquitylated proteins ([1]; A-T cells)	UV-induced decrease of HA-polyubiquitylated proteins ([1]; A-T cells)	UV-induced degradation of HA-polyubiquitylated proteins ([1]; A-T/LV-ISG15 shRNA (ISG15-silenced) cells)	UV-induced degradation of HA-polyubiquitylated proteins ([1]; A-T/LV-control shRNA cells)	UV-induced decrease of HA-polyubiquitylated proteins ([1]; ATM+ cells)	CPT-mediated degradation of polyubiquitylated proteins [2]	aberrant autophagic flux (degradation) of autophagy substrates under genotoxic stress (LC3; A-T cerebellar brain slices)	UV-induced autophagic flux (LC3 degradation) (LC3; ATM+/− cerebellar slices)
CC(C)C[C@@H](C=O)NC(=O)[C@H](CC(C)C)NC(=O)[C@H](CC(C)C)NC(=O)OCc1ccccc1 [MG132] (Cbz-Leu-Leu-Leu-aldehyde)	resistant	failed to protect	completely block	failed to block	completely blocked	–	–	–
CO/C1=C\C(C)=C\[C@@H](C)[C@@H](O)[C@@H](C)C/C(C)=C/C=C/[C@H](OC)[C@@H]([C@@H](C)[C@@H](O)[C@H](C)[C@@]2(O)C[C@@H](O)[C@H](C)[C@@H](C(C)C)O2)OC1=O [Bafilomycin A1]	resistant	failed to block	–	–	significantly blocked	failed to protect	resistant	protected
